Each molecule was assayed against T1, human Cereblon WT GST-tagged protein (Homo sapiens, UniProt Q96SW2) (assay: CRBN binding, HTRF CEREBLON BINDING kit). Details: CRBN binding, HTRF CEREBLON BINDING kit.
T1 construct: purchased CISBIO 64BDCRBNPEH
Procedure, shortened: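 HTRF competition in which test compounds displace a Thalidomide-Re tracer from GST-tagged human Cereblon WT, detected with a GST Eu antibody. Incubation lasted 3 hours at room temperature, with emission read at 620 and 665 nm. Inhibition rate was derived from 665/620 ratios relative to blank and solvent control wells.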

T1 sequence (Q96SW2 whole entry): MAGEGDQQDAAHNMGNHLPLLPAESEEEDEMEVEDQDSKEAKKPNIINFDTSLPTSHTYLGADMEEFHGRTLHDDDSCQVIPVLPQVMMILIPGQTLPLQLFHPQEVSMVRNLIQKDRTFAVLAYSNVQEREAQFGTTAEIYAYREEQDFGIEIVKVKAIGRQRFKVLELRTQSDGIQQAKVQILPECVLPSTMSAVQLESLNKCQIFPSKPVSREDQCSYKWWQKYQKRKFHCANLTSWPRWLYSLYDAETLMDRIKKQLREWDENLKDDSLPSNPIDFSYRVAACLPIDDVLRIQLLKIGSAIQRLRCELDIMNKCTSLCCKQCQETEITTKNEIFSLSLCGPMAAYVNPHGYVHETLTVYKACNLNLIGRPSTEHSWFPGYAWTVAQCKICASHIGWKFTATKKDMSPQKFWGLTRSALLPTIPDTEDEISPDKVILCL

SMILES	IC50
O=C1CCN(c2ccc(CN3CCN(C4CCN(c5ccc(-c6cc(F)c7c(c6)C(=O)N(C(C(=O)Nc6nccs6)c6ncn8c6CCC8)C7)cc5)CC4)CC3)cc2)C(=O)N1 (stereo not shown) [GT-06244, 2-(6,7-dihydro-5H-pyrrolo[1,2-c]imidazol-1-yl)-2-(6-(4-(4-(4-(4-(2,4-dioxotetrahydropyrimidin-1(2H)-yl)benzyl)piperazin-1-yl)piperidin-1-yl)phenyl)-4-fluoro-1-oxoisoindolin-2-yl)-N-(thiazol-2-yl)acetamide]	0.5 to 1 µM
COc1cc(N2CCC(N3CCN(Cc4cncc(C5CCC(=O)NC5=O)c4)CC3)CC2)ccc1Nc1ncc(Cl)c(Nc2ccccc2P(C)(C)=O)n1 (stereo not shown) [GT-07614, 3-(5-((4-(1-(4-((5-chloro-4-((2-(dimethylphosphoryl)phenyl)amino)pyrimidin-2-yl)amino)-3-methoxyphenyl)piperidin-4-yl)piperazin-1-yl)methyl)pyridin-3-yl)piperidine-2,6-dione]	1 to 1.9 µM
Cc1ccc(-c2c(C)noc2C)cc1N(CC1CCN(Cc2ccc(N3CCC(=O)NC3=O)cn2)CC1)c1ccc(C2(C#N)CC2)cc1 [GT-06411, 1-(4-((5-(3,5-dimethylisoxazol-4-yl)-2-methylphenyl)((1-((5-(2,4-dioxotetrahydropyrimidin-1(2H)-yl)pyridin-2-yl)methyl)piperidin-4-yl)methyl)amino)phenyl)cyclopropane-1-carbonitrile]	0.5 to 1 µM
O=C1CCC(c2cncc(CN3C[C@H]4C[C@@H]3CN4c3ccc(-c4cc(F)c5c(c4)C(=O)N(C(C(=O)Nc4nccs4)c4ncn6c4CCC6)C5)cc3)c2)C(=O)N1 (stereo partly drawn) [GT-07391, 2-(6,7-dihydro-5H-pyrrolo[1,2-c]imidazol-1-yl)-2-(6-(4-((1R,4R)-5-((5-(2,6-dioxopiperidin-3-yl)pyridin-3-yl)methyl)-2,5-diazabicyclo[2.2.1]heptan-2-yl)phenyl)-4-fluoro-1-oxoisoindolin-2-yl)-N-(thiazol-2-yl)acetamide]	< 0.5 µM
COC1CCN(c2nccc(Nc3cc4c(cn3)c(N3CCN(Cc5ccc(C6CCC(=O)NC6=O)cc5)CC3)nn4C(C)C)n2)CC1 (stereo not shown) [GT-06036, 3-(4-((4-(1-isopropyl-6-((2-(4-methoxypiperidin-1-yl)pyrimidin-4-yl)amino)-1H-pyrazolo[4,3-c]pyridin-3-yl)piperazin-1-yl)methyl)phenyl)piperidine-2,6-dione]	1 to 1.9 µM
CN1CCN([C@@H]2CCCN(c3cnc(C(N)=O)c(Nc4ccc(C5CCN(Cc6cccc(NC7CCC(=O)NC7=O)c6)CC5)cc4)n3)C2)C1=O (stereo partly drawn) [GT-04804, 3-((4-(1-(3-((2,6-dioxopiperidin-3-yl)amino)benzyl)piperidin-4-yl)phenyl)amino)-5-((R)-3-(3-methyl-2-oxoimidazolidin-1-yl)piperidin-1-yl)pyrazine-2-carboxamide]	1 to 1.9 µM
CCc1cc2c(cc1N1CCN(Cc3ccc(N4CCC(=O)NC4=O)cn3)CC1)C(C)(C)c1[nH]c3cc(C#N)ccc3c1C2=O [GT-07326, 8-(4-((5-(2,4-dioxotetrahydropyrimidin-1(2H)-yl)pyridin-2-yl)methyl)piperazin-1-yl)-9-ethyl-6,6-dimethyl-11-oxo-6,11-dihydro-5H-benzo[b]carbazole-3-carbonitrile]	1 to 1.9 µM
COc1cc(N2CCC(N(C)Cc3cc(C4CCC(=O)NC4=O)cnc3F)CC2)ccc1Nc1ncc(Cl)c(Nc2ccccc2P(C)(C)=O)n1 (stereo not shown) [GT-07696, 3-(5-(((1-(4-((5-chloro-4-((2-(dimethylphosphoryl)phenyl)amino)pyrimidin-2-yl)amino)-3-methoxyphenyl)piperidin-4-yl)(methyl)amino)methyl)-6-fluoropyridin-3-yl)piperidine-2,6-dione]	< 0.5 µM
CCc1cc2c(cc1N1CCC(N3CCN(Cc4cncc(N5CCC(=O)NC5=O)c4)CC3)CC1)C(C)(C)c1[nH]c3cc(C#N)ccc3c1C2=O [GT-07702, 8-(4-(4-((5-(2,4-dioxotetrahydropyrimidin-1(2H)-yl)pyridin-3-yl)methyl)piperazin-1-yl)piperidin-1-yl)-9-ethyl-6,6-dimethyl-11-oxo-6,11-dihydro-5H-benzo[b]carbazole-3-carbonitrile]	< 0.5 µM
O=C1CCC(c2ccc(CN3CCN(C4CCN(c5ccc(Nc6ncc7nc(Nc8ccccc8)n(C8CCCC8)c7n6)cc5)CC4)CC3)cc2)C(=O)N1 (stereo not shown) [GT-05915, 3-(4-((4-(1-(4-((9-cyclopentyl-8-(phenylamino)-9H-purin-2-yl)amino)phenyl)piperidin-4-yl)piperazin-1-yl)methyl)phenyl)piperidine-2,6-dione]	< 0.5 µM
O=C1CCC(c2ccc(CN3C[C@H]4C[C@@H]3CN4c3ccc(-c4cc(F)c5c(c4)C(=O)N(C(C(=O)Nc4nccs4)c4ncn6c4CCC6)C5)cc3)cc2)C(=O)N1 (stereo partly drawn) [GT-06176, 2-(6,7-dihydro-5H-pyrrolo[1,2-c]imidazol-1-yl)-2-(6-(4-((1R,4R)-5-(4-(2,6-dioxopiperidin-3-yl)benzyl)-2,5-diazabicyclo[2.2.1]heptan-2-yl)phenyl)-4-fluoro-1-oxoisoindolin-2-yl)-N-(thiazol-2-yl)acetamide]	0.5 to 1 µM
CCc1cc2c(cc1N1CCC(N3CCN(Cc4ccc(C5CCC(=O)NC5=O)cn4)CC3)CC1)C(C)(C)c1[nH]c3cc(C#N)ccc3c1C2=O (stereo not shown) [GT-07705, 8-(4-(4-((5-(2,6-dioxopiperidin-3-yl)pyridin-2-yl)methyl)piperazin-1-yl)piperidin-1-yl)-9-ethyl-6,6-dimethyl-11-oxo-6,11-dihydro-5H-benzo[b]carbazole-3-carbonitrile]	< 0.5 µM
O=C1CCN(c2cncc(CN3C[C@H]4C[C@@H]3CN4c3ccc(-c4cc(F)c5c(c4)C(=O)N(C(C(=O)Nc4nccs4)c4ncn6c4CCC6)C5)cc3)c2)C(=O)N1 (stereo partly drawn) [GT-07388, 2-(6,7-dihydro-5H-pyrrolo[1,2-c]imidazol-1-yl)-2-(6-(4-((1R,4R)-5-((5-(2,4-dioxotetrahydropyrimidin-1(2H)-yl)pyridin-3-yl)methyl)-2,5-diazabicyclo[2.2.1]heptan-2-yl)phenyl)-4-fluoro-1-oxoisoindolin-2-yl)-N-(thiazol-2-yl)acetamide]	< 0.5 µM
CCc1cc2c(cc1N1CCC(N3CCN(Cc4ccc(N5CCC(=O)NC5=O)c(F)c4)CC3)CC1)C(C)(C)c1[nH]c3cc(C#N)ccc3c1C2=O [GT-07308, 8-(4-(4-(4-(2,4-dioxotetrahydropyrimidin-1(2H)-yl)-3-fluorobenzyl)piperazin-1-yl)piperidin-1-yl)-9-ethyl-6,6-dimethyl-11-oxo-6,11-dihydro-5H-benzo[b]carbazole-3-carbonitrile]	0.5 to 1 µM
O=C1CCN(c2cccc(CN3CCN(c4ccc(Nc5ncc6nc(Nc7ccccc7)n(C7CCCC7)c6n5)cc4)CC3)c2)C(=O)N1 [GT-05838, 1-(3-((4-(4-((9-cyclopentyl-8-(phenylamino)-9H-purin-2-yl)amino)phenyl)piperazin-1-yl)methyl)phenyl)dihydropyrimidine-2,4(1H,3H)-dione]	0.5 to 1 µM
CN(C)C(=O)c1cc2cnc(Nc3ccc(N4CCN(Cc5ccc(C6CCC(=O)NC6=O)cc5)CC4)cn3)nc2n1C1CCCC1 (stereo not shown) [GT-06339, 7-cyclopentyl-2-((5-(4-(4-(2,6-dioxopiperidin-3-yl)benzyl)piperazin-1-yl)pyridin-2-yl)amino)-N,N-dimethyl-7H-pyrrolo[2,3-d]pyrimidine-6-carboxamide]	< 0.5 µM
